Measured values as given in patent US20210045385A1, “PYRIDAZINONE-SUBSTITUTED KETOXIMES AS HERBICIDES” (FMC Corporation, priority 2018, published 2021).

Tests used:
Format in all cases: in vivo
[1] = system: sedge umbrella (small-flower umbrella sedge, Cyperus difformis); test: Test D flooded paddy test, visual plant response rating; details: 250 g ai/ha, scale 0 to 100 (0 no effect, 100 complete control), 13 to 15 d
Procedure, shortened: (§1)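 Plants grown to the 2-leaf stage; pots flooded to 3 cm above soil and compound applied directly into paddy water, depth held throughout. Kept in greenhouse 13 to 15 d, then rated visually against untreated controls on a 0–100 scale (0 no effect, 100 complete control).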

rice (Oryza sativa) = test: as above; details: 250 g ai/ha, scale 0 to 100 (0 no effect, 100 complete control), 13 to 15 d
Procedure, shortened: as §1

[2] = system: duck salad (Heteranthera limosa); test: as above; details: 250 g ai/ha, scale 0 to 100 (0 no effect, 100 complete control), 13 to 15 d
Procedure, shortened: as §1

[3] = system: barnyardgrass (Echinochloa crus-galli); test: as above; details: 250 g ai/ha, scale 0 to 100 (0 no effect, 100 complete control), 13 to 15 d
Procedure, shortened: as §1

[4] = system: Italian ryegrass (Lolium mutiflorum); test: Test C preemergence, visual plant response rating; details: Test C, 0 is no effect, 100 is complete control
Procedure, shortened: (§2)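 Seeds sown in a loam–sand blend got a directed preemergence soil spray; postemergence plants (2–10 cm, one- to two-leaf stage) were sprayed with compound in a non-phytotoxic solvent plus surfactant. Injury was scored visually against untreated controls after about 10 d in a greenhouse on a 0–100 scale (100 = complete control).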

kochia (Bassia scoparia) [5] = test: Test C preemergence, visual plant response rating; details: Test C, 0 is no effect, 100 is complete control
Procedure, shortened: as §2

[6] = system: pigweed (Amaranthus retroflexus); test: Test C preemergence, visual plant response rating; details: Test C, 0 is no effect, 100 is complete control
Procedure, shortened: as §2

[7] = system: ragweed (common ragweed, Ambrosia artemisiifolia); test: Test C preemergence, visual plant response rating; details: Test C, 0 is no effect, 100 is complete control
Procedure, shortened: as §2

[8] = system: foxtail, giant (giant foxtail, Setaria faberi); test: Test C preemergence, visual plant response rating; details: Test C, 0 is no effect, 100 is complete control
Procedure, shortened: as §2

[9] = system: barnyardgrass (Echinochloa crus-galli); test: Test C preemergence, visual plant response rating; details: Test C, 0 is no effect, 100 is complete control
Procedure, shortened: as §2

[10] = system: Italian ryegrass (Lolium mutiflorum); test: Test C postemergence, visual plant response rating
Procedure, shortened: as §2

[11] = system: galium (catchweed bedstraw, Galium aparine); test: Test C postemergence, visual plant response rating
Procedure, shortened: as §2

corn (Zea mays) = test: Test C postemergence, visual plant response rating
Procedure, shortened: as §2

kochia (Bassia scoparia) [12] = test: Test C postemergence, visual plant response rating
Procedure, shortened: as §2

[13] = system: blackgrass (Alopecurus myosuroides); test: Test C postemergence, visual plant response rating
Procedure, shortened: as §2

[14] = system: wheat (Triticum aestivum); test: Test C postemergence, visual plant response rating
Procedure, shortened: as §2

[15] = system: pigweed (Amaranthus retroflexus); test: Test C postemergence, visual plant response rating
Procedure, shortened: as §2

[16] = system: ragweed (common ragweed, Ambrosia artemisiifolia); test: Test C postemergence, visual plant response rating
Procedure, shortened: as §2

[17] = system: foxtail, giant (giant foxtail, Setaria faberi); test: Test C postemergence, visual plant response rating
Procedure, shortened: as §2

[18] = system: barnyardgrass (Echinochloa crus-galli); test: Test C postemergence, visual plant response rating
Procedure, shortened: as §2

[19] = Test C, postemergence, 125 g ai/ha

SMILES	Plant response rating, Sedge, Umbrella (Flood) [1]	Plant response rating, Rice (Flood) (rice (Oryza sativa))	Plant response rating, Ducksalad (Flood) [2]	Plant response rating, Barnyardgrass (Flood) [3]	Ryegrass, Italian plant response rating (0 to 100 scale) ([4]; 31 g ai/ha)	Ryegrass, Italian plant response rating (0 to 100 scale) ([4]; 125 g ai/ha)	Kochia plant response rating (0 to 100 scale) (kochia (Bassia scoparia) [5]; 31 g ai/ha)	Kochia plant response rating (0 to 100 scale) (kochia (Bassia scoparia) [5]; 125 g ai/ha)	Pigweed plant response rating (0 to 100 scale) ([6]; 31 g ai/ha)	Pigweed plant response rating (0 to 100 scale) ([6]; 125 g ai/ha)	Ragweed plant response rating (0 to 100 scale) ([7]; 31 g ai/ha)	Ragweed plant response rating (0 to 100 scale) ([7]; 125 g ai/ha)	Foxtail, Giant plant response rating (0 to 100 scale) ([8]; 31 g ai/ha)	Foxtail, Giant plant response rating (0 to 100 scale) ([8]; 125 g ai/ha)	Barnyardgrass plant response rating (0 to 100 scale) ([9]; 31 g ai/ha)	Barnyardgrass plant response rating (0 to 100 scale) ([9]; 125 g ai/ha)	Ryegrass, Italian plant response rating (0 to 100 scale) ([10]; Postemergence, 31 g ai/ha)	Ryegrass, Italian plant response rating (0 to 100 scale) [10, 19]	Galium plant response rating (0 to 100 scale) ([11]; Postemergence, 31 g ai/ha)	Galium plant response rating (0 to 100 scale) [11, 19]	also measured
CO/N=C(/c1c(O)c(C)nn(C)c1=O)c1cccc2cc(SC)ccc12 [Compound 297]	0	0	0	0	0	0	0	0	0	0	0	0	0	0	0	0	0	0	0	0	Corn plant response rating (0 to 100 scale) (corn (Zea mays); Postemergence, 31 g ai/ha): 0; Corn plant response rating (0 to 100 scale) (corn (Zea mays); [19]): 0; Kochia plant response rating (0 to 100 scale) (kochia (Bassia scoparia) [12]; Postemergence, 31 g ai/ha): 0; Kochia plant response rating (0 to 100 scale) (kochia (Bassia scoparia) [12]; [19]): 0; Blackgrass plant response rating (0 to 100 scale) ([13]; Postemergence, 31 g ai/ha): 0; Blackgrass plant response rating (0 to 100 scale) [13, 19]: 0; Wheat plant response rating (0 to 100 scale) ([14]; Postemergence, 31 g ai/ha): 0; Wheat plant response rating (0 to 100 scale) [14, 19]: 0; Pigweed plant response rating (0 to 100 scale) ([15]; Postemergence, 31 g ai/ha): 0; Pigweed plant response rating (0 to 100 scale) [15, 19]: 0; Ragweed plant response rating (0 to 100 scale) ([16]; Postemergence, 31 g ai/ha): 0; Ragweed plant response rating (0 to 100 scale) [16, 19]: 0; Foxtail, Giant plant response rating (0 to 100 scale) ([17]; Postemergence, 31 g ai/ha): 0; Foxtail, Giant plant response rating (0 to 100 scale) [17, 19]: 0; Barnyardgrass plant response rating (0 to 100 scale) ([18]; Postemergence, 31 g ai/ha): 0; Barnyardgrass plant response rating (0 to 100 scale) [18, 19]: 0
CO/N=C(/c1c(O)c(C)nn(C)c1=O)c1cc(SC)cc2ccccc12 [Compound 298]	0	0	0	0	0	0	0	0	0	10	0	0	0	0	0	0	0	0	0	30	Corn plant response rating (0 to 100 scale) (corn (Zea mays); Postemergence, 31 g ai/ha): 0; Corn plant response rating (0 to 100 scale) (corn (Zea mays); [19]): 0; Kochia plant response rating (0 to 100 scale) (kochia (Bassia scoparia) [12]; Postemergence, 31 g ai/ha): 0; Kochia plant response rating (0 to 100 scale) (kochia (Bassia scoparia) [12]; [19]): 10; Blackgrass plant response rating (0 to 100 scale) ([13]; Postemergence, 31 g ai/ha): 0; Blackgrass plant response rating (0 to 100 scale) [13, 19]: 20; Wheat plant response rating (0 to 100 scale) ([14]; Postemergence, 31 g ai/ha): 0; Wheat plant response rating (0 to 100 scale) [14, 19]: 0; Pigweed plant response rating (0 to 100 scale) ([15]; Postemergence, 31 g ai/ha): 0; Pigweed plant response rating (0 to 100 scale) [15, 19]: 40; Ragweed plant response rating (0 to 100 scale) ([16]; Postemergence, 31 g ai/ha): 0; Ragweed plant response rating (0 to 100 scale) [16, 19]: 10; Foxtail, Giant plant response rating (0 to 100 scale) ([17]; Postemergence, 31 g ai/ha): 0; Foxtail, Giant plant response rating (0 to 100 scale) [17, 19]: 0; Barnyardgrass plant response rating (0 to 100 scale) ([18]; Postemergence, 31 g ai/ha): 0; Barnyardgrass plant response rating (0 to 100 scale) [18, 19]: 0
